# Measurements published in US11253524B2 (Gilead Sciences, Inc., priority 2018, dated 2022).
# Key:
# Assay type in all cases: in vitro ADME
# [1] = system: cryopreserved hepatocytes; assay: Metabolites of [14C]BIC in cryopreserved hepatocytes, dog; conditions: Beagle Dog hepatocytes, 4 hours, [14C]BIC 20 μM
# From the text: (§1) Metabolic pathways included hydroxylation (3 variants), N-dealkylation, and direct glucuronidation. All human metabolites were also observed in nonclinical species. Using the hepatocyte system where the full range of hepatic metabolic enzymes are represented, it appeared that the metabolism of BIC was extensive in monkey and dog but lower in rat and human.
# [2] = system: cryopreserved hepatocytes; assay: Metabolites of [14C]BIC in cryopreserved hepatocytes, monkey; conditions: Cynomolgus Monkey hepatocytes, 4 hours, [14C]BIC 20 μM
# From the text: as §1
# [3] = system: cryopreserved hepatocytes; assay: Metabolites of [14C]BIC in cryopreserved hepatocytes, human; conditions: 4 hours, [14C]BIC 20 μM
# From the text: as §1
smiles,measurement,setting,value
"O=C(NCc1c(F)cc(F)cc1F)c1cn2c(c(O)c1=O)C(=O)N1[C@H]3CC[C@H](C3)O[C@@H]1C2 [BIC, bictegravir, reference compound]",Fraction of Radiochromatogram (%),[1],78.7%
same,Fraction of Radiochromatogram (%),[2],52.4%
same,Fraction of Radiochromatogram (%),[3],93.9%
